Results from US20220117911A1, “METHODS AND COMPOSITIONS FOR MODULATING BLOOD-BRAIN BARRIER” (INSERM (institut National de la Santé et de la Recherche …, priority 2019, published 2022).
Several values for one entry are separate records, joined by “and”; a condition that tells them apart may be missing. Equal values may be shown once. Read-outs that look alike come from different tables or passages of the source. Each block holds one compound with its values, some of them ahead of it.

Legend:
hCMEC/D3 cells [1] = experiment: Wound healing migration assay in hCMEC/D3 cells; assay type: cell-based, human; details: for effect on cell migration vs control group: 3 μM CBD
Experimental: Cell migration was determined with wound healing assay in hCMEC/D3 as reported previously20. Briefly, a standard wound was created by scratching the cell monolayer of hCMEC/D3 cells with a sterile 200 μL plastic pipette tip and line makers were made at the bottom of plates to indicate the wound edges. After removing cell fragments, the cells were incubated at 37° C. with medium containing 5% FBS. In order to minimize avoid the effect of cell proliferation on would healing assay, the medium was absent of bFGF. The areas of the wound and wound repair activity were photographed by phase contrast microscope (Olympus, Japan) at 0, 4, 8, 24 h. […] After 3 days, cells were prepared for wound healing assay with 100% confluence. […] To study the effects of silencing TRPV2 channel on cell proliferation, the cells were firstly treated under three conditions mentioned above (Control, negative siRNA, and TRPV2 siRNA) in a 6-wells plate. After transfection, the cells were re-distributed in 12-well plate at a density of 5×10^5 cells/well in 750 μL complete culture medium. When cells were 100% confluent, the wound healing assay was started following the above-mentioned protocol. Assays were performed 3 times in triplicate.

hCMEC/D3 cells [2] = experiment: Tubulogenesis, 3D culture of hCMEC/D3 cells in Matrigel; assay type: cell-based, human; details: for increase of closing tube number vs control group: 3 μM CBD
Experimental: 3D culture of hCMEC/D3 human BBB endothelial cells was performed using Matrigel (Corning). Matrigel, stored at 4° C. at least 24 h before the assay, was added to a 48-well plate (150 μL/well), and then the plate was incubated at 37° C. for 1 h to allow Matrigel polymerization. […] 500 μL/well fresh complete medium containing cells were distributed in the 48-well plate. After 2 h, 7 h and 24 h incubation, images of the wells in the plate were taken. […] Assays were performed 3 times in triplicate and tubule-like structure lumen count was realized with Image J software.

TRPV2 = biological target: T1, TRPV2 (Homo sapiens, UniProt Q9Y5S1); experiment: Intracellular Ca2+ signal measurements (Fluo-4-AM) in hCMEC/D3 cells; assay type: cell-based; details: for effect on heat-induced [Ca2+]i signals: heat stimulation
T1 construct: endogenous in cells; host or cells: hCMEC/D3 (human cerebral microvessel endothelial cell line)
T1 sequence (Q9Y5S1 1-764): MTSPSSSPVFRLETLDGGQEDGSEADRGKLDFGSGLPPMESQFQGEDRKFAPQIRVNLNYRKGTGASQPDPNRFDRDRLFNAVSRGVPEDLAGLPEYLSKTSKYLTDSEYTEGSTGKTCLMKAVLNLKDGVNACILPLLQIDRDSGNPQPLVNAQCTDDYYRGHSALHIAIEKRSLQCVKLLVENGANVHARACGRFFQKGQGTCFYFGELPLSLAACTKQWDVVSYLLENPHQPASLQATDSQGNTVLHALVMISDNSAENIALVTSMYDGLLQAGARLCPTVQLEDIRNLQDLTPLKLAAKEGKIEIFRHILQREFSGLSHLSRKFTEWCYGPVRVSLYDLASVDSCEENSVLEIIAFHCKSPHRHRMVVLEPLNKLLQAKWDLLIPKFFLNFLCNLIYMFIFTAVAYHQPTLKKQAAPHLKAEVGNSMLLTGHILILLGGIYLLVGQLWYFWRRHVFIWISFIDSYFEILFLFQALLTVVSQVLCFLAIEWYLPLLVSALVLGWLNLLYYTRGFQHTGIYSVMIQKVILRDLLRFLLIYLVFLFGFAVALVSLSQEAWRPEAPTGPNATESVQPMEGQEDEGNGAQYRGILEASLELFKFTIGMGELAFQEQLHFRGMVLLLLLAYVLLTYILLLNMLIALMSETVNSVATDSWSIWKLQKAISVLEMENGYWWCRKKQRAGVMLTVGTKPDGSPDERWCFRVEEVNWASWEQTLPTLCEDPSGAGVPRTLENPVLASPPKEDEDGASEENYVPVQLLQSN
Experimental: Fluorescence measurement of intracellular Ca2+ ([Ca2+]i) concentration was performed in accordance with our optimized protocol as below: hCMEC/D3 cells grown at 100% confluence in 24-well plates were loaded with 2 μM of fluorescent marker, Fluo-4-AM (λex=496 nm, λem=516 nm, F14201, Thermo Fisher Scientific) for 45 min at 37° C. in a loading Hank's buffer (500 μL/well). The cells were washed and replaced with 500 μL/well buffer. After additional 10 min of incubation at 37° C., the 24-well plates were placed into a Victor™ X2 fluorescent heated microplate reader (PerkinElmer, France). When applying antagonists, cells were pre-treated with the compound for 5 min before to start fluorescent signals recording. Data are expressed as F1/F0, where F0 is the average fluorescence of the control group (no agent or no heat stimulation application) and F1 is the actual fluorescence at the corresponding time for the treated group. To visualize clearly and directly the effect of the chemical agonist and antagonist on [Ca2+]i change, hCMEC/D3 cells were seeded in a 8-well ibidi (1.5 polymer coverslip, CliniSciences). Then, the μ-Slide containing 250 μL/well normal buffer was placed on the platform of a ZEISS 515 […] confocal microscope (Carl Zeiss), and fluo-4-AM loaded cells were photographed using a time-lapse mode every 60 s during 20 min in a humidified 5% CO2 atmosphere at 37° C. Images of hCMEC/D3 were analysed in Fiji app running Image J software.
(§1) Data are expressed as mean value±SEM. Statistical analysis was performed using ANOVA with Dunnett a posteriori test to compare different groups with the control. P value<0.05 was considered statistically significant. […] To calculate IC50 of antagonists (RR and TNL), the concentration-response data were fitted to a logistic function as follows: Y=100/(1+10(log IC50−X)×HillSlope) where Y is the normalized response from 100% down to 0%, X is the decimal log of concentration, HillSlope is the slope. Data fitting was all performed in GraphPad Prism 5.01 software.

hCMEC/D3 cells [3] = experiment: Trypan blue exclusion assay (number of viable cells) in hCMEC/D3 cells; assay type: cell-based, human
Description: (§2) To study the effects of TRPV2 agonists and antagonists and silencing TRPV2 on cell viability, the 3-(4,5-dimethyl-2-thiazolyl)-2,5-diphenyl-2-H-tetrazolium bromide assay (MTT, Sigma-Aldrich) evaluating cell mitochondrial activity and Trypan blue exclusion assay evaluating living cells were applied. Cells were firstly treated under three conditions mentioned above (Control, negative siRNA, and TRPV2 siRNA) in a 6-well plate. After transfection, cells were re-distributed in a new plate with the same cell number and the same medium in each well. Cell viability were analysed at 0, 24 h, 48 h, 72 h after re-distribution. For MTT assay, cells were re-distributed in 96-well plates at a density of 1×10^4 cells/well, 6 wells per group, one plate four each time. For Trypan blue exclusion assay, cells were re-distributed in 24-well plates at a density of 5×10^4 cells/well. The number of living cells (not stained by Trypan blue) in each well was counted in a TC20™ Automated Cell Counter (Bio-Rad) at each time point, with 3 wells per group.

[4] = MTT cell viability assay in hCMEC/D3 cells; assay type: cell-based, human; details: human, read-out: decrease of cell viability (MTT)
Description: as §2
(§3) After 24 h treatment, the wells were replaced with 100 μL/well fresh complete medium, and 20 μL MTT solution (diluted in PBS buffer, 5 mg·mL-1) was added to each well. And, the plates were kept at 37° C. for an additional 4 h. Then the medium was removed and replaced with 100 μL DMSO per well, in order to dissolve the formazan. The plates were read using a Victor™ X2 microplate reader at 490 nm (PerkinElmer).
as §1

hCMEC/D3 cells [5] = experiment: MTT cell viability assay in hCMEC/D3 cells; assay type: cell-based, human; details: for CBD-induced proliferation level (MTT, CTL=100%): 3 μM CBD
Description: as §2, §3, §1

hCMEC/D3 cells [6] = experiment: ATP CellTiter-Glo luminescent cell viability assay in hCMEC/D3 cells; assay type: cell-based, human
Experimental: FIG. 4: Pharmacological and genetic inhibition of TRPV2 reverse CBD-induced cell death of hCMEC/D3 cells. […] Cell viability was measured by ATP CellTiter-Glo luminescent cell viability assay. […] Cell viability was measured by ATP CellTiter-Glo luminescent cell viability assay. […] (D) Effect of silencing TRPV2 in CBD-induced cell cytotoxicity. […] Data are expressed as mean±SEM.
To further validate the involvement of TRPV2 in CBD-induced cell death of hCMEC/D3 cells, pharmacological and genetic inhibition strategies were used. The number of viable cells was evaluated by quantitating total ATP in cells treated by CBD. […] This further indicates the role of TRPV2 at least partly in the CBD-induced cell death.

hPBMEC monolayers = experiment: TEER of in vitro human BBB model using hPBMECs on Transwell; assay type: cell-based; details: 50 μM TNL co-treatment with 1 μM CBD
Description: Human Primary Brain Microvascular Endothelial Cells (hPBMECs). Brain capillary endothelial cells were isolated from surgical resections of patients with brain tumors. […] In brief, brain capillaries were isolated using soft digestion of patient brain peritumoral tissues and then seeded. Brain primary microvascular endothelial cells were shortly amplified and seeded on Transwell® (Corning) with microporous membranes (pore size: 0.4 μm) in monoculture or in co-culture with the same patient's fresh primary human cultured astrocytes. Cells were cultured in EBM-2 medium (Lonza, Basel, Switzerland) supplemented with 20% serum and growth factors (Sigma).
After 24 h co-culture, CBD (1 μM) or the same proportion of vehicle was added into the cell inserts. To study the involvement of TRPV2 in CBD-induced effect, cells were pre-treated with 50 μM TNL for 5 min before adding CBD. The TEER values expressed in Ω·cm2 were recorded after 1, 2, 4, 10, 24, 31, 48, 72, 96, 120 h of CBD treatment.

SMILES: C=C(C)[C@@H]1CCC(C)=C[C@H]1c1c(O)cc(CCCCC)cc1O [CBD, cannabidiol]
effect on cell migration vs control group (hCMEC/D3 cells [1]; 4 h post wound): significant pro-migration effect | effect on cell migration vs control group (hCMEC/D3 cells [1]; 8 h post wound, p<0.05): significant increase | increase of closing tube number vs control group (hCMEC/D3 cells [2]; 7 h): 41% and 42.0±14.0% | increase of closing tube number vs control group (hCMEC/D3 cells [2]; 24 h): 73% and 73.0±15.3% | increase of [Ca2+]i area under the curve (AUC) vs control (TRPV2; 30 μM CBD, 20 min incubation): 1.5 fold | lowest concentration with significant increase of [Ca2+]i AUC (TRPV2; 20 min incubation): 0.3 µM | increase of the number of viable cells (hCMEC/D3 cells [3]; 3 μM CBD): 1.2 fold | cytotoxicity at 24 h, 15 μM ([4]; hCMEC/D3 cells silenced for TRPV2 (TRPV2 siRNA)): 6% | cytotoxicity at 24 h, 15 μM ([4]; hCMEC/D3 cells treated with negative (NEG) siRNA): 27% | cytotoxicity at 24 h, 15 μM ([4]; hCMEC/D3 cells): 37% | cytotoxicity at 48 h, 15 μM ([4]; hCMEC/D3 cells): 77% | cytotoxicity at 72 h, 15 μM ([4]; hCMEC/D3 cells): 78% | CBD-induced proliferation level (MTT, CTL=100%) (hCMEC/D3 cells [5]; 24 h, siNEG cells): 125.9±4.0% | CBD-induced proliferation level (MTT, CTL=100%) (hCMEC/D3 cells [5]; 24 h, siTRPV2 cells): 113.0±2.1% | increase of MTT absorbance vs control group (hCMEC/D3 cells [5]; 10 μM CBD, 24 h): 22.0±1.2% | lowest concentration with significantly increased MTT absorbance (hCMEC/D3 cells [5]; 24 h): 0.3 µM | EC50 (hCMEC/D3 cells [5]; Homo sapiens, hCMEC/D3, 24 h, read-out: EC50 of CBD effect on MTT absorbance (cell viability)): ~300 nM | effect on cell viability (ATP) (hCMEC/D3 cells [6]; 30 μM CBD, 2 h): significantly decreased

SMILES: CC(C)C[C@H](NC(=O)c1cc2ccccc2s1)C(=O)N1CCN(C(=O)[C@H](CO)NS(=O)(=O)c2ccc(Cl)cc2Cl)CC1 [GSK1016790A]
effect on cell viability (MTT) (hCMEC/D3 cells [5]; GSK1016790A 1 μM, 24, 48 or 72 h): did not alter cell viability

SMILES: N.N.N.N.N.N.N.N.N.N.N.N.N.N.[Cl-].[Cl-].[Cl-].[Cl-].[Cl-].[Cl-].[O-2].[O-2].[Ru+3].[Ru+3].[Ru+4] [RR, ruthenium red]
effect on CBD-induced elevation of [Ca2+]i (TRPV2; 10 μM RR pretreatment, 15 μM CBD): fully abolished | IC50 (TRPV2; 15 μM CBD, antagonist pre-treatment 5 min, read-out: IC50 of inhibition of CBD-mediated elevation of [Ca2+]i): 7.7 ± 1.7 µM | effect on heat-induced [Ca2+]i signals (TRPV2; RR): significantly decreased

effect on CBD-mediated lasting elevation of [Ca2+]i (TRPV2; 100 μM TNL, 15 μM CBD): fully abolished | effect on heat-induced [Ca2+]i signals (TRPV2; TNL 50 or 100 μM): significantly decreased
SMILES: COc1ccc(/C=C/C(=O)Nc2ccccc2C(=O)O)cc1OC [TNL, tranilast]
effect on CBD-induced TEER increase (hPBMEC monolayers): totally inhibited | effect on pro-migration effect of CBD (hCMEC/D3 cells [1]; 50 μM TNL co-treatment with 3 μM CBD, 8 h): totally inhibited | effect on CBD-induced tube formation (hCMEC/D3 cells [2]; 50 μM TNL co-treatment with 3 μM CBD, 7 h): inhibited | effect on CBD-induced tube formation (hCMEC/D3 cells [2]; 50 μM TNL with 3 μM CBD, 24 h): totally reversed | effect on CBD-induced increase of viable cells (hCMEC/D3 cells [3]; 50 μM TNL with 3 μM CBD): totally inhibited | effect on CBD-induced decrease in cell viability (ATP) (hCMEC/D3 cells [6]; 50 μM TNL, 15 μM CBD, 48 h): partly reversed | effect on CBD-induced decrease in cell viability (ATP) (hCMEC/D3 cells [6]; 100 μM TNL, 30 μM CBD, 2 h): reversed
